Results taken from patent publication US10646466B2, “Uses of gallocatechin” (TCI CO., LTD., priority 2017, dated 2020).

Assays:
Format in all cases: cell-based
Conditions in all cases: 0.0625 μg/ml, 24 hours, control set as 1-fold
TPH1 gene = assay: qPCR expression level of TPH1 gene in SHSY5Y cells
Procedure: (§1) SHSYSY cells were seeded in a 6-well plate (1×10^5 cells/well) and then cultured for 24 hours. Thereafter, cells were divided into the control group and experimental group and were separately cultured in the following medium for 24 hours: • 1. Control group: DMEM medium; • 2. Experimental group: a medium the same as that of the control group, but additionally added with 0.0625 μg/ml of the compound of formula (I). Thereafter, cells of the above groups were harvested and subjected to an RNA extraction with an RNA Extract Kit. The RNA thus obtained was then transcribed into cDNA by using a Reverse Transcriptase. Thereafter, the cDNA was subjected to a quantitative polymerase chain reaction (qPCR) by using a Step One Plus system and a KAPA SYBR FAST qPCR kit to determine the expression levels of genes related to melatonin (including TPH1, DDC, AANAT and ASMTL) in the cells of each group. The above experimental steps were repeated three times, and then the results of the three experiments were averaged. Thereafter, the result of the control group was used as a basis (i.e., the gene expression level of the control group was set as 1-fold) to calculate the relative gene expression level of the experimental group.

DDC gene = assay: qPCR expression level of DDC gene in SHSY5Y cells
Procedure: as §1

AANAT gene = assay: qPCR expression level of AANAT gene in SHSY5Y cells
Procedure: as §1

ASMTL gene = assay: qPCR expression level of ASMTL gene in SHSY5Y cells
Procedure: as §1

Oc1cc(O)c2c(c1)O[C@H](c1cc(O)c(O)c(O)c1)[C@@H](O)C2 [compound of formula (I), gallocatechin]
significantly increased: relative expression level of TPH1 gene as compared to the control group (TPH1 gene) | relative expression level of DDC gene as compared to the control group (DDC gene) | relative expression level of AANAT gene as compared to the control group (AANAT gene) | relative expression level of ASMTL gene as compared to the control group (ASMTL gene)
